Measurements published in patent publication US20100105707A1, “METHOD OF TREATING OR PREVENTING OXIDATIVE STRESS-RELATED DISEASE” (The United States of America, priority 2006, published 2010).
≈ marks a conversion by molar mass, not a printed value.

Assays:
[1] = Water solubility in cold water; assay type: physicochemical
Description: Commercially available derivatives are obtained from Sigma-Aldrich (St. Louis, Mo.). The methods used for the synthesis of methyl- and sulfur-derivatives of uric acid are similar to those described previously (Beaman et al., J. Org. Chem., 27, 986-990 (1962) and Maruyama et al., Nucleosides, Nucleotides, Nucleic Acids, 19, 1193-1203 (2000)) and structures are confirmed by ^13C nuclear magnetic resonance (NMR) and ultra-violet (UV) spectral analyses. Uric acid analogs are assayed by high performance liquid chromatography (HPLC) and found to be of >97% purity.

[2] = tested on: cultured hippocampal neurons; assay: Oxygen and glucose deprivation (OGD) of cultured hippocampal neurons; assay type: cell-based, rat; details: compared to neurons in control cultures; FIG. 2
Description: FIG. 2 illustrates that compounds of formula (I) protect cultured hippocampal neurons against ischemia-like conditions in an embodiment of the invention. Neuronal survival is quantified and values are the mean and SEM (n=8-10 cultures). *p<0.05 compared to the vehicle/OGD cultures. Synaptosomes are prepared from the cerebral cortex of 2-3 month-old adult male Sprague-Dawley rats and are cryopreserved using methods described previously (Begley et al., Brain Res. Protoc., 3, 76-82 (1998)). After thawing, cryopreserved synaptosomes are washed twice with Locke's buffer and plated in 24-well plates at a protein concentration of 250 μg per well. After a 30 min period to permit attachment of the synaptosomes to the substrate, synaptomoses are incubated for 1 h with compounds of formula (I) (1-10 μM), and then exposed for 4 h to freshly prepared 50 μM Fe^2+ (FeSO4). After an additional 30 min incubation in the presence of 10 μM dihydrorhodamine 123 (DHR), a probe for ROS which fluoresces when oxidized (Keller et al., J. Neurochem., 69, 273-284 (1997)), the synaptosomes are washed twice with Locke's buffer and levels of fluorescence are quantified using a fluorescence plate reader (488 nm excitation and 510 emission wavelengths). Fluorescence values for wells exposed to experimental treatments are expressed as a percentage of the mean value for untreated control wells. […] Methods for preparation and maintenance of cultures of PC12 cells and primary embryonic rat hippocampal neurons have been described previously (Furukawa et al., J. Neurosci., 17, 8178-8186 (1997) and Chan et al., J. Biol. Chem., 279, 28733-28743 (2004)). Cells are plated into polyethylenimine-coated plastic 96-well culture plates containing Neurobasal medium with B27 supplements. Experiments are performed in 7-8 day-old cultures (hippocampal neurons) or Dulbecco's modified eagle's medium (DMEM) with 10% fetal bovine serum (PC12 cells). […] Cell viability is quantified by counting viable neurons in premarked microscope fields prior to and following experimental treatment and then calculating percent survival.

[3] = tested on: mouse model of focal ischemic stroke; assay: Focal cerebral ischemia-reperfusion (middle cerebral artery occlusion) model; assay type: in vivo, C57BL/6 mice; details: administered 1 h after ischemia onset; for functional outcome (neurological deficit score): FIG. 5A; for brain damage: FIG. 5B
Description: (§1) FIG. 4 illustrates that a compound of formula (I) improves functional outcome (e.g., ambulation) and reduces brain damage in a mouse model of focal ischemic stroke in an embodiment of the invention. In FIG. 4A neurological function is scored at 24, 48 and 72 hours post-stroke. In FIG. 4B infarct volume is quantified at 72 hours post-stroke. Values are the mean and SEM (n=8-12 mice). *p<0.001 compared to sham. +p<0.01 compared to vehicle.
as §1, with “FIG. 5” for “FIG. 4”, “that compounds” for “that a compound”, “(I) improve” for “(I) improves”, “outcome” for “outcome (e.g., ambulation)”, “FIG. 5A,” for “FIG. 4A”, “FIG. 5B,” for “FIG. 4B”
Three month-old male C57BL/6 mice are maintained on a 12 h light/12 h dark cycle with continuous access to food and water. The method for subjecting the mice to middle cerebral artery occlusion-reperfusion has been described previously (Arumugam et al., Am. J. Physiol. Heart Circ. Physiol., 287, H2555-2560 (2004)). Mice are anesthetized with isofluorane, a midline incision is made in the neck, and the left external carotid and pterygopalatine arteries are isolated and ligated with 5-0 silk thread. The internal carotid artery (ICA) is occluded at the peripheral site of the bifurcation of the internal carotid artery and the pterygopalatine artery with a small clip and the common carotid artery is ligated with 5-0 silk thread. The external carotid artery is cut, and a 6-0 nylon monofilament with a tip that is blunted (0.2-0.22 mm) with a coagulator is inserted into the external carotid artery. After the clip at the ICA is removed, the nylon thread is advanced into the middle cerebral artery until light resistance is felt. The nylon thread and the common carotid artery ligature are removed after 1 h of occlusion to initiate reperfusion. In the sham group, these arteries are visualized but not disturbed. Mice are administered either uric acid analogs of formula (I) or vehicle (dimethylsulfoxide) by infusion into the femoral vein (10 μl infused over a 2 min period) either 30 min prior to or 60 min after the onset of middle cerebral artery (MCA) occlusion. In a separate set of experiments anesthetized animals from all groups (4-6 mice per group) undergo cerebral blood flow (CBF) measurements using a laser Doppler perfusion monitor. All blood flow measurements are conducted with the mouse fixed in a plastic frame with the probe placed in the region of cerebral cortex perfused by the middle cerebral artery. These procedures are approved by the National Institute on Aging Animal Care and Use Committee.
The functional consequences of focal cerebral ischemia-reperfusion injury are evaluated by using a five-point neurological deficit score (0, no deficit; 1, failure to extend right paw; 2, circling to the right; 3, falling to the right; and 4, unable to walk spontaneously) and are assessed in a blinded fashion. At 72 h of reperfusion, the mice are killed with a lethal dose of isofluorane. The brains are immediately removed and placed into PBS (4° C.) for 15 min, and 2-mm coronal sections are cut with a tissue cutter. The brain sections are stained with 2% 2,3,5-triphenyltetrazolium chloride in phosphate buffer at 37° C. for 15 min. The stained sections are photographed, and the digitized images are used for analysis. The borders of the infarct in each brain slice are outlined and the area quantified using a NIH image 6.1 software. To correct for brain swelling, the infarct area is determined by subtracting the area of undamaged tissue in the left hemisphere from that of the intact contralateral hemisphere. Infarct volume is calculated by integration of infarct areas for all slices of each brain.

[4] = Pharmacokinetics: plasma and brain levels after intravenous administration; assay type: in vivo, C57BL/6 mice; details: mice; for Kp: male, C57BL/6, mouse, brain (cerebral cortical tissue) / plasma, early time points (15-30 min), read-out: brain tissue concentration as percentage of plasma concentration; for detection in the brain: equimolar to 10 mg/kg uric acid, 15, 30, 60 and 120 min; for brain concentration time course versus plasma: through the 120 min time point
Description: Mice are administered intravenously 10 mg/kg ([…]) of uric acid as a reference compound and equimolar doses of its analogs (sUA4-2,6,8 trithio uric acid, 12.9 mg/kg; mUA2-1,7 dimethyl uric acid, 11.7 mg/kg; sUA2-6,8 dithio uric acid, 11.9 mg/kg). Three month-old male C57BL/6 mice are injected with a compound and are euthanized 15, 30, 60 or 120 min later (1 mouse/time point/compound). Blood and brain tissues are rapidly removed, frozen on dry ice and kept at −80° C. before quantification of uric acid analogs. Plasma and cerebral cortical tissues are extracted in 10 volumes of 0.5 M perchloric acid and 1 mM ethylenediamine tetraacetic acid (EDTA). Levels of uric acid analogs in the extracts are quantified by HPLC methods employing a 25 cm RP C18 column, 25 mM KH2PO4 buffer (pH=4.6) with 1 ml/min flow rate and UV diode array detection.
Mice that are administered mUA2, sUA2 or sUA4 intravenously are euthanized at increasing time points (15, 30, 60 and 120 min) and levels of the compounds in plasma and brain tissue are measured.

[5] = tested on: PC12 cells; assay: PC12 cell death induced by MPP+; assay type: cell-based; details: concentrations of 0.1 to 10 μM; FIGS. 3A and 3B
Description: (§2) FIG. 3 illustrates that uric acid and a compound of formula (I) protect cultured neural cells against oxidative and excitotoxic injury in an embodiment of the invention. Cultured PC12 cells are pretreated with uric acid (FIG. 3A) or mUA3 (FIG. 3B). Cultured hippocampal neurons are pretreated with uric acid (FIG. 3C) or mUA3 (FIG. 3D). Cell survival is quantified and values are the mean and SEM of 4-8 cultures. *p<0.05 compared to 0 uric acid or mUA3 concentration.
(§3) Methods for preparation and maintenance of cultures of PC12 cells and primary embryonic rat hippocampal neurons have been described previously (Furukawa et al., J. Neurosci., 17, 8178-8186 (1997) and Chan et al., J. Biol. Chem., 279, 28733-28743 (2004)). Cells are plated into polyethylenimine-coated plastic 96-well culture plates containing Neurobasal medium with B27 supplements. Experiments are performed in 7-8 day-old cultures (hippocampal neurons) or Dulbecco's modified eagle's medium (DMEM) with 10% fetal bovine serum (PC12 cells). Hippocampal neurons and PC12 cells are plated 7 days and 3 days prior to experiments, respectively. […] Cell viability is quantified by counting viable neurons in premarked microscope fields prior to and following experimental treatment and then calculating percent survival. […]

[6] = tested on: primary hippocampal neurons; assay: Hippocampal neuron death induced by glutamate excitotoxicity; assay type: cell-based, rat; details: FIGS. 3C and 3D
Description: as §2, §3

[7] = tested on: ROS in cerebral cortex synaptosomes; assay: Synaptosome antioxidant assay (Fe2+-induced ROS, dihydrorhodamine 123); assay type: cell-based, Sprague-Dawley rats; details: 1-10 μM, 1 h pretreatment, then 50 μM Fe2+ for 4 h; FIG. 1B
Description: FIG. 1A depicts structures of uric acid and exemplary compounds of formula (I). FIG. 1B illustrates antioxidant activities of uric acid and compounds of formula (I) as quantified using a synaptosome assay in an embodiment of the invention. Levels of reactive oxygen species (ROS) are measured and values are expressed as a percentage of ROS present in Fe^2+-treated control synaptosomes (mean and SEM, n=4 experiments). *p<0.05, **p<0.01 compared to the control value.
Synaptosomes are prepared from the cerebral cortex of 2-3 month-old adult male Sprague-Dawley rats and are cryopreserved using methods described previously (Begley et al., Brain Res. Protoc., 3, 76-82 (1998)). After thawing, cryopreserved synaptosomes are washed twice with Locke's buffer and plated in 24-well plates at a protein concentration of 250 μg per well. […] After an additional 30 min incubation in the presence of 10 μM dihydrorhodamine 123 (DHR), a probe for ROS which fluoresces when oxidized (Keller et al., J. Neurochem., 69, 273-284 (1997)), the synaptosomes are washed twice with Locke's buffer and levels of fluorescence are quantified using a fluorescence plate reader (488 nm excitation and 510 emission wavelengths). Fluorescence values for wells exposed to experimental treatments are expressed as a percentage of the mean value for untreated control wells.

[8] = tested on: PC12 cells; assay: PC12 cell death induced by Fe2+; assay type: cell-based; details: concentrations of 0.1 to 10 μM; FIGS. 3A and 3B
Description: as §2, §3

[9] = tested on: primary hippocampal neurons; assay: Hippocampal neuron death induced by Fe2+; assay type: cell-based, rat; details: FIGS. 3C and 3D
Description: as §2, §3

Compound	solubility [1] [µg/mL]	resistance to OGD induced death [2]	functional outcome (neurological deficit score) [3]	brain damage [3]	Kp [4]	detection in the brain [4]	brain concentration time course versus plasma [4]	protection of PC12 cells against MPP+ [5]	protection of primary hippocampal neurons against glutamate excitotoxicity [6]	levels of ROS in synaptosomes [7]	protection of PC12 cells against Fe2+ [8]	protection of primary hippocampal neurons against death induced by Fe2+ [9]
S=c1[nH]c(=S)c2[nH]c(=S)[nH]c2[nH]1 [sUA4, 2,6,8 trithio uric acid]	3000 (≈ 13.9 mM)	significantly more resistant	significantly improve functional outcome	decrease brain damage	~0.1	detected in the brain at all time points examined	remain elevated while plasma concentrations decrease progressively	–	–	–	–	–
Cn1c(=O)[nH]c2[nH]c(=O)n(C)c2c1=O [mUA2, 1,7 dimethyl uric acid]	2000 (≈ 10.2 mM)	significantly more resistant	significantly improve functional outcome	decrease brain damage	~0.1	detected in the brain at all time points examined	remain elevated while plasma concentrations decrease progressively	–	–	–	–	–
O=c1[nH]c(=O)c2[nH]c(=O)[nH]c2[nH]1 [uric acid]	100 (≈ 0.595 mM)	–	–	–	–	–	–	protected	protected	significantly diminished	protected	protected
